In one data set the target is T1, PASK (UniProt #Q96RG2; human recombinant N-terminal GST tagged construct, residues 879-1323) (Homo sapiens, UniProt Q96RG2).
T1 construct: N-terminal GST tagged construct, residues 879-1323; GST (N); host or cells: insect cells
The data set can be described thus: PASK ATP Radiochemical Assay. The following applies: 33P-ATP, Myelin Basic Protein substrate, read-out: IC50 Kinase Domain. It counts as biochemical. Summed up:
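Insect-cell GST-PASK (residues 879-1323, 5 nM final) phosphorylating 20 μM myelin basic protein with ^33P-ATP (0.01 μCi/μl final). Buffer 20 mM HEPES pH 7.5, 10 mM MgCl2, 1% DMSO. Reaction ran 120 min at room temperature; P81 filter binding and scintillation counting.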

Another data set addresses T2, PASK (Invitrogen) (Homo sapiens, UniProt Q96RG2).
T2 construct: IC50 Kinase Domain; purchased Invitrogen
Nature of the data set: PAS Kinase FRET Assay. The format is biochemical. The following applies: PAS kinase TR-FRET assay (665 nm/615 nm); read-out: IC50 Kinase Domain. Summed up: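 PASK phosphorylates a ULight-peptide with ATP in 50 mM HEPES, 10 mM MgCl2, 1 mM EGTA, 0.01% Tween-20, 2 mM DTT for 2 h at 25° C in the dark. Compounds are added as 4× serial dilutions (top 12×10^−5 M at 4×). After stopping, an Eu anti-phospho-substrate antibody is added for 1 h and TR-FRET is read at 665/615 nm.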

For data set [1], the target named is T3, CK2a2 (NP_001887; human full-length protein, GST tagged) (Homo sapiens, UniProt P19784).
T3 construct: human full-length protein, GST tagged; GST; host or cells: insect cells
Nature of the data set: Biochemical Assay for CK2 Activity. The following applies: 33P-ATP radiochemical assay, CK2 sub [RRRDDDSDDD]. Summed up:
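Radiometric filter-binding assay: GST-tagged full-length CK2a2 (1.2 nM) with 20 μM RRRDDDSDDD peptide in HEPES pH 7.5, MgCl2, EGTA, DTT, 1% DMSO; reaction started with ^33P-ATP and run 120 min at room temperature. Phosphorylated peptide captured on P81 paper, washed, and counted by scintillation.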

Data set [2] has as its target T4, PIM1 (NP_002639; human full-length protein, 6×His tagged) (Homo sapiens, UniProt P11309).
T4 construct: human full-length protein, 6×His tagged; 6xHis; host or cells: insect cells
Nature of the data set: Biochemical Assay for PIM1 Activity. Particulars: 33P-ATP radiochemical assay, S6K/Rsk2 peptide 2 substrate. The method, boiled down: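 His-tagged full-length human PIM1 from insect cells (1.0 nM final) was reacted with S6K/Rsk2 peptide 2 (20 μM) and ³³P-ATP in Hepes pH 7.5 buffer with 1% DMSO for 120 min at room temperature. Phosphorylated peptide was captured on P81 paper and counted by scintillation.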

The nature of data set [3]: In vivo pharmacokinetics in the Sprague Dawley rat. Particulars: formulation as in Table 5. How it is done: Pharmacokinetics of a PASK Inhibitor
The in vivo pharmacokinetics of Examples 12, 17, 43, and 51 were evaluated in the Sprague Dawley rat. Blood samples were collected at 0.083, 0.25, 0.5, 1, 2, 4, 6, 8, and 24 hours and the samples were analyzed for test compounds content using LC/MS/MS. The data was submitted to pharmacokinetic analysis using WinNonLin software and the observed and calculated pharmacokinetic parameters are shown in Table 5 for each compound.

The structures appear in SMILES notation.

From patent publication US10392389B2, “Heterocyclic compounds for the inhibition of PASK” (BioEnergenix, LLC, priority 2012, dated 2019) come the findings set out here.

T2 sequence (Q96RG2 999-1251 limits assumed): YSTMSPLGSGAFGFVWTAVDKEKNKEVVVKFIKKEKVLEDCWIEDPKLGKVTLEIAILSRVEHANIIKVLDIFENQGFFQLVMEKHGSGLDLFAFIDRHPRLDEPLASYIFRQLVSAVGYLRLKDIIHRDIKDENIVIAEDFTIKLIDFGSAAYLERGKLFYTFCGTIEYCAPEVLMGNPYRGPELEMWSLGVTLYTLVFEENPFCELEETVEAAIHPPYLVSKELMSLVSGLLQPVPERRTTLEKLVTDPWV
T4 sequence (P11309 whole entry): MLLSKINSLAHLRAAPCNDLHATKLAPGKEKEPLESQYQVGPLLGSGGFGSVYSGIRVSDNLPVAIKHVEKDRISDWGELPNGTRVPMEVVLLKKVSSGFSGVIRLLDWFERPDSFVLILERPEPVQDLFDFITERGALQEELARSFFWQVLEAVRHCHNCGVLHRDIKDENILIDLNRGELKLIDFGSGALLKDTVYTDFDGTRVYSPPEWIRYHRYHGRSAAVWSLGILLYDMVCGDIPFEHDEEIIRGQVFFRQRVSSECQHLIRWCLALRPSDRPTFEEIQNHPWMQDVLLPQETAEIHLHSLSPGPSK
T1 sequence (Q96RG2 879-1323, stated change not applied): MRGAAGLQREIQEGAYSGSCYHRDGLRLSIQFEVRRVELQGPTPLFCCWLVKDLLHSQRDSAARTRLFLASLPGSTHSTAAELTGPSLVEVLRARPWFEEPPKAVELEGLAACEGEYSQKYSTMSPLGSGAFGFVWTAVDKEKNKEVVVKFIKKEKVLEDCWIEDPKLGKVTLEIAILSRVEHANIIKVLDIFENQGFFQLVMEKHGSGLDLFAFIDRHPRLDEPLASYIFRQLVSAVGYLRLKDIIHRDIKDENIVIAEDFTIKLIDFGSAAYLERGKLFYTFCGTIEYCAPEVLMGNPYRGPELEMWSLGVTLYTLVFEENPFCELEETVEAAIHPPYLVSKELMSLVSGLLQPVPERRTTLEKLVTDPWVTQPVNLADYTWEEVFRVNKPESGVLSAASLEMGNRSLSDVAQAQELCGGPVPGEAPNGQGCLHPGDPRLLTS
T3 sequence (P19784 whole entry): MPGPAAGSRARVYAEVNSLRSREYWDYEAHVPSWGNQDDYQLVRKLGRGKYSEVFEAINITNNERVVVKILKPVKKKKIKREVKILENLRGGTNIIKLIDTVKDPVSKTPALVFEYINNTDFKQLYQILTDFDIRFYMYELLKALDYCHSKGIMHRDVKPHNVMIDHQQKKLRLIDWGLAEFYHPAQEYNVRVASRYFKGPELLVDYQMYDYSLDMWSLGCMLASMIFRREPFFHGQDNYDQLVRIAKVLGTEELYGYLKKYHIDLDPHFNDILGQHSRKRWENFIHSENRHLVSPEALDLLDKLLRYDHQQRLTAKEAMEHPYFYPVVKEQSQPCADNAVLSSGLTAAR

Consider `COc1cc(-c2cc(=O)n3ncc(-c4ncc(C)o4)c3[nH]2)ccc1Cl` [Example 17, 5-(4-chloro-3-methoxyphenyl)-3-(5-methyl-1,3-oxazol-2-yl)-4H,7H-pyrazolo[1,5-a]pyrimidin-7-one], for which, on PASK, the IC50 was not above 10 µM. Besides, the IC50 at PASK (Invitrogen) is not above 10 µM. In data set [1], this molecule yielded an IC50 not above 10 µM. Further, the IC50 in data set [2] was not above 10 µM. In data set [3] (IV, 3 mg/kg), the “Cl (clearance)” value is 6.19 mL/min/kg, the “Vss (volume of distribution)” value is listed as 0.61 L/kg and the “t1/2 (half-life)” value amounted to 8.3 h. Besides, in data set [3] (PO, 10 mg/kg), the “F (oral bioavailability)” value came out at 42%, the “Tmax (Time to maximum blood concentration after an oral dose)” value amounted to 4 h and the “t1/2 (half-life)” value was determined as 2.12 h.

Take `COc1cc(-c2cc(=O)n3ncc(-c4ccnn4C)c3[nH]2)ccc1Cl` [Example 51, 5-(4-chloro-3-methoxyphenyl)-3-(1-methyl-1H-pyrazol-5-yl)pyrazolo[1,5-a]pyrimidin-7(4H)-one]: the IC50 at PASK (Invitrogen) is not above 10 µM. For the same molecule, in data set [3] (IV, 3 mg/kg), the “Cl (clearance)” value was determined as 62 mL/min/kg, the “Vss (volume of distribution)” value stood at 0.71 L/kg and the “t1/2 (half-life)” value amounted to 0.38 h. Besides, in data set [3] (PO, 10 mg/kg), the “F (oral bioavailability)” value is 1.17%, the “Tmax (Time to maximum blood concentration after an oral dose)” value amounted to 0.25 h and the “t1/2 (half-life)” value worked out at 2.62 h.
